Assay results: patent publication US10774053B2, “HIV protease inhibitors” (Gilead Sciences, Inc., priority 2017, dated 2020)
Where two headings read alike, the source gives them in different places.

Legend:
[1] = test system: HIV-1 (IIIB) in MT-4 cells; assay: microbe, parasite or virus in culture; type: cell-based
[2] = biological target: recombinant human BACE-1 (Homo sapiens (Human), UniProt P56817); assay: Beta-secretase (BACE) inhibition assay, fluorogenic enzymatic assay; type: biochemical
Method: Beta-Secretase (BACE) Inhibition Assay
Inhibitory potency against β-secretase (BACE) was measured using an enzymatic assay with a fluorogenic readout. 50 nM of recombinant human BACE-1 (R&D Systems) and test compound at one of various concentrations were added to a reaction buffer containing 20 mM sodium acetate at pH 4.8, with 0.06% Triton X-100, and 1% DMSO. […] The total volume of the assay solution was 100 μL. […] The slopes of the progress curves were the measure of reaction rates. Reaction rates were plotted as a function of inhibitor concentration, and the data were fit with a four-parameter logistic fit using Graphpad PRISM software to yield IC50 values.

[3] = Liver microsomal stability, human liver microsomes; settings: human
Method: Liver Microsomal Stability Protocol
Test compounds and one control compound (verapamil) were tested in 3 different species in duplicate sets.
Test compound concentration: 1 uM; Protein concentration: 0.5 mg/mL (for dog, rat, and human liver microsomes); Cofactor: NADPH-Regenerating system (NRS) solution; Time-points: 2, 12, 25, 45, and 65 minutes.
Reaction Composition (in Each Incubation Well) Contains:
At an incubation temperature of 37° C., the reaction was started with addition of NADPH Regeneration System, at each time point, 25 uL of the reaction mixture was removed and added to a plate with 225 uL quenching solution (50% MeOH, 25% ACN, 25% H2O, and 200 nM labetalol as internal standard). After plates were vortexed, they were centrifuged for 30 minutes to remove proteins. About 100 μL supernatant was removed to a new plate and diluted with 150 μL water. About 20 μL of the mixture was injected into LC/MS/MS system to monitor the compound's response. In vitro measured t1/2 was used to calculate Clint values.

[4] = MT-4 cells, HIV-1, read-out: MT4 EC50
[5] = Human immunodeficiency virus 1, IIIB, MT4, MT-4 cells, HIV-1, read-out: MT4 EC50

recombinant human BACE-1, sequence (P56817 46-501): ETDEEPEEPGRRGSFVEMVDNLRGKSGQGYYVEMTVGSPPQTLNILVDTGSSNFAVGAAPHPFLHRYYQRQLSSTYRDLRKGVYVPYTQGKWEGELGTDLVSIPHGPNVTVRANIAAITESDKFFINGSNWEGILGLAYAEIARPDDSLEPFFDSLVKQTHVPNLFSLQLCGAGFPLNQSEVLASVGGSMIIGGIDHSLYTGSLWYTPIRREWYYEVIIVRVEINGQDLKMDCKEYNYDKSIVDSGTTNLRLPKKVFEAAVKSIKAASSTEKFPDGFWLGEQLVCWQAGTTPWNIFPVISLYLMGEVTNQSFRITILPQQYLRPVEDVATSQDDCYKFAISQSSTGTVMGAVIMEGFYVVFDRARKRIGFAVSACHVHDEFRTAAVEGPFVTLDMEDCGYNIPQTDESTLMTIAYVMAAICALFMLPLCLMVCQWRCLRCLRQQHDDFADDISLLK

Row | Structure (SMILES) | IC50 [2] [nM] | EC50 [1, 5] [nM] | half-life at 1 uM ([3]; liver microsomes) [h] | also measured
1 | CC(C)(C)C[C@]1(c2ccc(-c3cnn(C(F)F)c3)cc2)NC(=N)N([C@H](COC(=O)N[C@@H]2CC2(F)F)c2ccc(Cl)c(-n3ncnc3C(F)F)c2)C1=O (single isomer, unassigned) [Compound 335] | > 100000 |  |  | EC50 [1, 4]: 5.59 nM
2 | CC1(NC(=O)OC[C@H](c2ccc(Cl)c(-c3ncn[nH]3)c2)N2C(=N)N[C@](CC(C)(C)C(F)(F)F)(c3ccc(-c4cnn(C(F)F)c4)cc3)C2=O)CC1 [Compound 32] | > 100000 | 69.2 |  | 
3 | CC(C)(C)C[C@]1(c2ccc(-c3cnn(C(F)F)c3)cc2)NC(=N)N([C@H](COC(=O)NC(C)(C)C(F)F)c2ccc(Cl)c(-c3ncnn3C(F)F)c2)C1=O [Compound 90] | > 100000 | 12.2 |  | 
4 | CC(C)(C)C[C@]1(c2ccc(-c3cnn(C(F)F)c3)cc2)NC(=N)N([C@H](COC(=O)NC2(C(F)(F)F)CC2)c2ccc(Cl)c(-c3ncnn3C(F)F)c2)C1=O [Compound 113] | > 100000 | 7.75 |  | 
5 | CC(C)(F)C[C@]1(c2ccc(-c3cnn(C4CC4)c3)cc2)NC(=N)N([C@H](COC(=O)NC2(C(F)(F)F)CC2)c2ccc(Cl)c(-c3ncnn3C(F)F)c2)C1=O [Compound 131] | > 100000 | 20.8 | ≥ 6.58 | 
6 | CC(C)(C)C[C@]1(c2ccc(-c3cnn(C4CC4)n3)cc2)NC(=N)N([C@H](COC(=O)NC2(C(F)(F)F)CC2)c2ccc(Cl)c(-c3ncnn3C(F)F)c2)C1=O [Compound 146] | > 100000 | 10.3 | ≥ 6.58 | 
7 | CC(C)(C[C@]1(c2ccc(-c3cnn(C4CC4)n3)cc2)NC(=N)N([C@H](COC(=O)NC2(C(F)(F)F)CC2)c2ccc(Cl)c(-c3ncnn3C(F)F)c2)C1=O)C(F)(F)F [Compound 152] | > 100000 | 13 | ≥ 6.58 | 
8 | CC(C)(C[C@]1(c2ccc(-c3cnn(C4CC4)n3)cc2)NC(=N)N([C@H](COC(=O)NC2(C(F)F)CC2)c2ccc(Cl)c(-c3ncnn3C(F)F)c2)C1=O)C(F)(F)F [Compound 155] | > 100000 | 9.87 | ≥ 6.58 | 
9 | CC(C)(C)C[C@]1(c2ccc(-c3cnn(C(F)F)c3)cc2)NC(=N)N([C@H](COC(=O)NC2(C(F)(F)F)CC2)c2ccc(Cl)c(-n3ncnc3C(F)F)c2)C1=O [Compound 177] | > 100000 | 9.81 |  | 
10 | CC(C)(C)C[C@]1(c2ccc(-c3cnn(C(F)F)c3)cc2)NC(=N)N([C@H](COC(=O)NC(C)(C)C(F)F)c2ccc(Cl)c(-n3ncnc3C(F)F)c2)C1=O [Compound 185] | > 100000 | 12.6 |  | 
11 | CC(C)(F)C[C@]1(c2ccc(-c3cnn(C(F)F)c3)cc2)NC(=N)N([C@H](COC(=O)NC2(C(F)(F)F)CC2)c2ccc(Cl)c(-n3ncnc3C(F)F)c2)C1=O [Compound 194] | > 100000 | 14.8 | ≥ 6.58 | 
12 | CC(C)(C)C[C@]1(c2ccc(-c3cnn(C(F)F)c3)cc2F)NC(=N)N([C@H](COC(=O)NC2(C(F)(F)F)CC2)c2ccc(Cl)c(-n3ncnc3C(F)F)c2)C1=O [Compound 195] | > 100000 | 10.5 | ≥ 6.58 | 
13 | CC(C)(C)C[C@]1(c2ccc(-c3ccnn3C(F)F)cc2)NC(=N)N([C@H](COC(=O)NC2(C(F)(F)F)CC2)c2ccc(Cl)c(-n3ncnc3C(F)F)c2)C1=O [Compound 212] |  |  |  | EC50 [1, 4]: 11.9 nM; IC50 ([2]; 50 nM recombinant human BACE-1, pH 4.8, read-out: BACE IC50): > 100000 nM
14 | CC(C)(C)C[C@]1(c2ccc(-c3cnn(C(F)F)c3)cc2)NC(=N)N([C@H](COC(=O)NCC(F)(F)F)c2ccc(Cl)c(-n3ncnc3C(F)F)c2)C1=O [Compound 218] | > 100000 | 9.89 |  | 
15 | CC(C)(C)C[C@]1(c2ccc(-c3cnn(C4CC4)n3)cc2)NC(=N)N([C@H](COC(=O)NC2(C(F)(F)F)CC2)c2ccc(Cl)c(-n3ncnc3C(F)F)c2)C1=O [Compound 223] | > 100000 | 13.1 | ≥ 6.58 | 
16 | CC(C)(C)C[C@]1(c2ccc(-c3cnn(C(F)F)c3)cc2)NC(=N)N([C@H](COC(=O)NC2(C(F)(F)F)CC2)c2ccc(Cl)c(-n3cncn3)c2)C1=O [Compound 236] | > 100000 | 10.6 | ≥ 6.58 | 
17 | CC(C)(C)C[C@]1(c2ccc(-c3cnn(C(F)F)c3)cc2)NC(=N)N([C@H](COC(=O)NC(C)(C)C(F)(F)F)c2ccc(Cl)c(-n3cncn3)c2)C1=O [Compound 242] | > 100000 | 6.83 | ≥ 6.58 | 

Row | Structure (SMILES) | IC50 [2] [nM] | EC50 [1, 5] [nM] | half-life at 1 uM ([3]; liver microsomes) [h] | also measured
18 | CN(C(=O)OC[C@H](c1ccc(Cl)c(-n2cncn2)c1)N1C(=N)N[C@](CC(C)(C)C)(c2ccc(-c3cnn(C4CC4)c3)cc2)C1=O)C1CC1 [Compound 244] | > 100000 | 7.66 |  | 
19 | CC(C)(C[C@]1(c2ccc(-c3cnn(C4CC4)n3)cc2)NC(=N)N([C@H](COC(=O)NC2(C(F)(F)F)CC2)c2ccc(Cl)c(-n3ncnc3C(F)F)c2)C1=O)C(F)(F)F [Compound 270] | > 100000 | 19.1 | ≥ 6.58 | 
20 | CC(C)(C[C@]1(c2ccc(-c3cnn(C4CC4)n3)cc2)NC(=N)N([C@H](COC(=O)NC2(C(F)F)CC2)c2ccc(Cl)c(-n3ncnc3C(F)F)c2)C1=O)C(F)(F)F [Compound 271] | > 100000 | 12.6 |  | 
21 | CC(C)(C)C[C@]1(c2ccc(-c3cnn(S(C)(=O)=O)c3)cc2F)NC(=N)N([C@H](COC(=O)NC2(C(F)(F)F)CC2)c2ccc(Cl)c(-n3ncnc3C(F)F)c2)C1=O [Compound 286] | > 100000 | 9.61 |  | 
22 | C[C@H](NC(=O)OC[C@H](c1ccc(Cl)c(-n2ncnc2C(F)F)c1)N1C(=N)N[C@](CC(C)(C)C)(c2ccc(-c3cnn(C(F)F)c3)cc2)C1=O)C(F)(F)F [Compound 311] | > 100000 | 7.01 | ≥ 6.58 | 
23 | CC(C)(C)C[C@]1(c2ccc3c(C(F)F)nccc3c2)NC(=N)N([C@H](COC(=O)NC2(C(F)(F)F)CC2)c2ccc(Cl)c(-n3ncnc3C(F)F)c2)C1=O [Compound 348] | > 100000 | 7.46 |  | 
24 | Cn1c(=O)ccc2cc([C@@]3(CC(C)(C)C)NC(=N)N([C@H](COC(=O)NC4(C(F)(F)F)CC4)c4ccc(Cl)c(-n5ncnc5C(F)F)c4)C3=O)ccc21 [Compound 349] | > 100000 |  |  | EC50 ([1]; Human immunodeficiency virus 1, IIIB, MT4, read-out: MT4 EC50 (nM)): 36 nM
25 | CC(C)(C)C[C@]1(c2ccc(-n3ccnn3)cc2)NC(=N)N([C@H](COC(=O)NC2(C(F)(F)F)CC2)c2ccc(Cl)c(-n3ncnc3C(F)F)c2)C1=O [Compound 351] |  | 17.9 |  | half-life at 1 uM ([3]; human liver microsomes): ≥ 6.58 h
26 | CC(C)(C)C[C@]1(c2ccc(-c3cn(C4CC4)nn3)c(F)c2)NC(=N)N([C@H](COC(=O)NC2(C(F)(F)F)CC2)c2ccc(Cl)c(-n3ncnc3C(F)F)c2)C1=O [Compound 352] |  | 10.9 | ≥ 6.58 | 
27 | CC(C)(C)C[C@]1(c2ccc(-n3cnnc3)cc2)NC(=N)N([C@H](COC(=O)NC2(C(F)(F)F)CC2)c2ccc(Cl)c(-n3ncnc3C(F)F)c2)C1=O [Compound 359] |  | 424 | ≥ 6.58 | 
28 | CC(C)(C)C[C@]1(c2ccc(C#Cc3cnn(C(F)F)c3)c(F)c2)NC(=N)N([C@H](COC(=O)NC2(C(F)(F)F)CC2)c2ccc(Cl)c(-n3ncnc3C(F)F)c2)C1=O [Compound 361] |  | 82 | ≥ 6.58 | 
29 | C[C@H](NC(=O)OC[C@H](c1ccc(Cl)c(-n2ncnc2C(F)F)c1)N1C(=N)N[C@](CC(C)(C)C)(c2ccc(-c3cn(C4(C(F)(F)F)CC4)nn3)cc2)C1=O)C(F)(F)F [Compound 363] |  | 11.7 | ≥ 6.58 | 
30 | CC(C)(C)C[C@]1(c2ccc(-c3cn[nH]n3)cc2)NC(=N)N([C@H](COC(=O)NC2(C(F)(F)F)CC2)c2ccc(Cl)c(-n3ncnc3C(F)F)c2)C1=O [Compound 372] |  | 47.3 | ≥ 6.58 | 
31 | CC(C)(C)C[C@]1(c2ccc(-c3cnn(C4CC4)n3)cc2)NC(=N)N([C@H](CNS(=O)(=O)C2CC2)c2ccc(Cl)c(-n3ncnc3C(F)F)c2)C1=O [Compound 387] |  | 47.9 | ≥ 6.58 | 
32 | C[C@H](C(=O)NC[C@H](c1ccc(Cl)c(-n2ncnc2C(F)F)c1)N1C(=N)N[C@](CC(C)(C)C(F)(F)F)(c2ccc(-c3cnn(C4CC4)n3)cc2)C1=O)C(F)(F)F [Compound 389] | > 100000 | 12.2 | ≥ 6.58 | 
33 | CC(C)(C[C@]1(c2ccc(-c3cnn(C4CC4)n3)cc2)NC(=N)N([C@H](CNC(=O)CC(F)(F)F)c2ccc(Cl)c(-n3ncnc3C(F)F)c2)C1=O)C(F)(F)F [Compound 391] |  | 12.5 | ≥ 6.58 | 
34 | CC(C)(C[C@]1(c2ccc(-c3cnn(C4CC4)n3)cc2)NC(=N)N([C@H](CNC(=O)OC2CC2)c2ccc(Cl)c(-n3ncnc3C(F)F)c2)C1=O)C(F)(F)F [Compound 392] |  | 24.3 | ≥ 6.58 | 
